As a reminder, the solubility is how much of the substance goes into solution per volume. What is called logP is a log measure of how a compound divides between an organic and an aqueous phase. For orientation: LD50 means the dose expected to kill half of the subjects tested.

The test system of series [1] is herpes simplex type 1 virus (HSV-1) (KOS). Nature of the series: Inhibition of HSV-1 cytopathogenicity in Vero cell culture. In kind it is cell-based. The following applies: for IC50 HSV-1 (KOS): Vero cell culture, 50% inhibition of virus-induced cytopathogenicity, mean of duplicates, for 1:1 (W/W) mixtures IC50 refers to known antiviral drugs. On the technique in general: Damage to the host cells serves as the signal in cytopathic effect assays.

The test system of series [2] is thymidine kinase-positive (TK+) varicella-zoster virus (YS). The experiment in a line: Inhibition of TK+ VZV cytopathogenicity in Vero cell culture. Type of series: cell-based.
For series [3], the system named is human cytomegalovirus (AD-169). Nature of the series: Inhibition of HCMV cytopathogenicity in Vero cell culture. Type of series: cell-based. Particulars: Vero cell culture, 50% inhibition of cytopathogenicity, for 1:1 mixtures IC50 refers to known antiviral drugs.
Series [4] relates to herpes simplex type 2 virus (HSV-2) (G). Nature of the series: Inhibition of HSV-2 cytopathogenicity in Vero cell culture. Type of series: cell-based. The following applies: 50% inhibition of cytopathogenicity, for 1:1 mixtures IC50 refers to known antiviral drugs.
The test system of series [5] is thymidine kinase-deficient (TK−) varicella-zoster virus (YS/R). The experiment in a line: microbe, parasite or virus in culture. Type of series: cell-based. Particulars: for IC50 TK−VZV (YS/R): Vero cell culture, 50% inhibition of cytopathogenicity, for 1:1 mixtures IC50 refers to known antiviral drugs.
Series [6] deals with Vero cells.
For series [7], the system named is HeLa cells.
The nature of series [8]: Solubility in water (phosphate buffer, UV absorbance). The following applies: phosphate buffer, pH 6.8, aqueous buffer, thermodynamic from solid.
Series [9] deals with CEM cells. Nature of the series: Toxicity toward CEM cells.
Series [10] relates to MT4 cells. The experiment in a line: Toxicity toward MT4 cells.
Series [11] can be described thus: Lipophilicity, 1-octanol/water partition coefficient. Particulars: 1-octanol/water (0.10 M phosphate buffer).
The subject of series [12] is moloney murine sarcoma virus (MSV). The experiment in a line: Inhibition of MSV cytopathogenicity in CEM cells (cell-protection assay). Type of series: cell-based. Particulars: Moloney murine sarcoma virus, CCRF-CEM; CEM cells, average of duplicates; read-out: IC50 MSV.
The test system of series [13] is MSV. The following applies: for mean day of animal death / percentage of MSV-infected mice alive at day 21 postinfection / percentage of MSV-infected mice without tumors at day 21 postinfection: two injections; for mean day of tumor initiation: two injections within two days.
Series [14] deals with HIV-1 (IIIB). Nature of the series: microbe, parasite or virus in culture. Particulars: Human immunodeficiency virus 1, IIIB; MT4 cells, average of duplicates; read-out: IC50 HIV-1 (IIIB). In kind it is cell-based.
The nature of series [15]: LD50 and toxicity in mice, intraperitoneal.
Series [16] has as its system HIV-2 (LAV-2). Nature of the series: Inhibition of HIV-2 cytopathogenicity in MT4 cells. Type of series: cell-based, human immunodeficiency virus. Particulars: Human immunodeficiency virus 2; MT4 cells, average of duplicates; read-out: IC50 HIV-2 (LAV-2).
Series [17] relates to HSV-1 (KOS). Nature of the series: Anti-HSV-1 activity in vivo, HSV-1-induced mortality in NMRI mice. Particulars: 6 days; for mean day of animal death / mean day of symptom initiation: terminated day 21; for responders at 100 mg/kg / responders at 150 mg/kg / responders at 250 mg/kg: Human alphaherpesvirus 1, ip, 504 h.
Series [18] concerns the target T1, calf mucosal adenosine deaminase (ADA, EC 3.5.4.4) (Bos taurus, UniProt P56658).
T1 sequence (P56658 1-363): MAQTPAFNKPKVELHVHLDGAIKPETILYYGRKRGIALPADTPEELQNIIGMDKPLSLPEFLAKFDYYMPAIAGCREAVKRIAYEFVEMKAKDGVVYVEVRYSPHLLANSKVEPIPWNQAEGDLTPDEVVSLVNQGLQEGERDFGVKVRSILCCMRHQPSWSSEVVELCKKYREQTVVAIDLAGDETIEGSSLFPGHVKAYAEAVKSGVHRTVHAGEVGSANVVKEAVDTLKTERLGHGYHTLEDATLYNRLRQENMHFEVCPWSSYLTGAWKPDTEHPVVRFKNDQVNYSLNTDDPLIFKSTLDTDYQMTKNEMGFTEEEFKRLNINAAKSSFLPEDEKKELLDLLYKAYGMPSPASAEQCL
Nature of the series: Substrate activity and competitive inhibition of adenosine deaminase. In kind it is biochemical.

The mark [19] stands for this setting: Vero cell culture, 50% inhibition of cytopathogenicity, for 1:1 mixtures IC50 refers to known antiviral drugs.

≈ marks a conversion by molar mass, not a printed value. Like-named read-outs stand apart in the source and are kept apart here. Where only a bound is given, the exact number is not on record here.

Turning to `Nc1nc2ncn(COCCCl)c2c(=O)[nH]1` [Compound 7, 7-[(2-Chloroethoxy)methy]guanine], in [1], the “IC50 HSV-1 (KOS)” value was more than 128 µg/mL. The “IC50 TK+VZV (YS)” value in [2] (setting [19]) is more than 128 µg/mL. Besides, the “IC50 HCMV (AD-169)” value in series [3] was more than 128 µg/mL. Besides, the “IC50 HSV-2 (G)” value in [4] was more than 128 µg/mL. Also, in series [5], the “IC50 TK−VZV (YS/R)” value was more than 128 µg/mL. For the same compound, in series [6], the “Vero cell, concentration causing microscopically visible change or disruption in about 50% of the cell sheet” value amounted to 145 µg/mL. Further, the “HeLa cell, concentration causing microscopically visible change or disruption in about 50% of the cell sheet” value in series [7] was 157 µg/mL.

Take `Nc1ncnc2ncn(COCCCl)c12` [Compound 12, 7-[(2-Chloroethoxy)methy]adenine]: in series [1], the “IC50 HSV-1 (KOS)” value is more than 128 µg/mL. Besides, the “IC50 TK+VZV (YS)” value in [2] (setting [19]) is more than 128 µg/mL. In series [3], the “IC50 HCMV (AD-169)” value is more than 128 µg/mL. The “IC50 HSV-2 (G)” value in series [4] was more than 128 µg/mL. Moreover, the “IC50 TK−VZV (YS/R)” value in series [5] was more than 128 µg/mL. In addition, the “Vero cell, concentration causing microscopically visible change or disruption in about 50% of the cell sheet” value in series [6] was 165 µg/mL. Moreover, the “HeLa cell, concentration causing microscopically visible change or disruption in about 50% of the cell sheet” value in [7] worked out at 169 µg/mL.

In the case of `COC1=C(OC)/C(=C/COP(=O)(O)COCCn2cnc3c(N)ncnc32)OC1=O` [Compound 28, [1-(Adenin-9-yl-ethoxy)methyl]phosphono-6-yl-(Z)-4-(ethylidene)-2,3-dimethoxy-Δ^a,b-butenolide], the IC50 came out at 3.7 µg/mL (≈ 8.38 µM) in series [1] (Human alphaherpesvirus 1, Vero, read-out: IC50 HSV-1 (KOS)); 5.4 µg/mL (≈ 12.2 µM) in series [3] (Human betaherpesvirus 5, AD169, read-out: IC50 HCMV (AD-169)); 2.4 µg/mL (≈ 5.44 µM) in series [5] (Human alphaherpesvirus 3, Vero, read-out: IC50 TK−VZV (YS/R)); 0.93 µg/mL (≈ 2.11 µM) in series [12]; 1.4 µg/mL (≈ 3.17 µM) in [14]; 1 µg/mL (≈ 2.27 µM) in series [16]. The compound also had a solubility at 20 h in series [8] of 7420 µg/mL (≈ 16800 µM). Also, the “IC50 TK+VZV (YS)” value in series [2] stood at 2.0 µg/mL (≈ 4.53 µM). Besides, in [9], the “CEM cell, concentration reducing the number of viable uninfected cells by 50%” value was 280 µg/mL. Moreover, the “MT4 cell, concentration reducing the number of viable uninfected cells by 50%” value in series [10] was 265 µg/mL. Also, the logP at […] in [11] amounted to 2.09. The “mean day of animal death” value is 18.9 ± 1.8 days in series [13] (10 mg/kg/day i.p.); more than 21 days in series [13] (20 mg/kg/day i.p.); more than 21 days in [13] (50 mg/kg/day i.p.); more than 21 days in series [17] (100 mg/kg/day i.p.); more than 21 days in series [17] (150 mg/kg/day i.p.); more than 21 days in [17] (250 mg/kg/day i.p.). The “percentage of MSV-infected mice alive at day 21 postinfection” value is given as “(97%)” in [13] (10 mg/kg/day i.p.), “(100%)” in [13] (20 mg/kg/day i.p.) and “(100%)” in [13] (50 mg/kg/day i.p.). For the same compound, the “mean day of tumor initiation” value in [13] (10 mg/kg/day i.p.) came out at 14.0 ± 2.1 days; in [13] (20 mg/kg/day i.p.), 17.9 ± 1.7 days; in series [13] (50 mg/kg/day i.p.), 18.4 ± 1.4 days. Besides, the “percentage of MSV-infected mice without tumors at day 21 postinfection” value in series [13] (20 mg/kg/day i.p.) is “(80%)”; in series [13] (50 mg/kg/day i.p.), “(95%)”. Also, in series [13] (MSV-infected NMRI mice, i.p.), the “weight loss in surviving animals” value is given as “about 2 g”. In addition, the “Vero cell, concentration causing microscopically visible change or disruption in about 50% of the cell sheet” value in [6] (African green monkey) came out at 170 µg/mL. The “HeLa cell, concentration causing microscopically visible change or disruption in about 50% of the cell sheet” value in series [7] (human) came out at 139 µg/mL. In addition, the LD50 in series [15] (NMRI, mouse, in vivo, ip) was 710 mg/kg. In addition, the “level up to which no toxicity was shown” value in series [15] (mice, intraperitoneal) worked out at 400 mg/kg. In addition, in [17] (100 mg/kg i.p.), the “protection against HSV-induced mortality” value is “same level of protection”. The “mean day of symptom initiation” value in series [17] (100 mg/kg/day i.p.), in series [17] (150 mg/kg/day i.p.) and in [17] (250 mg/kg/day i.p.) was more than 21 days throughout. The responders at 100 mg/kg is 100% in series [17] (100 mg/kg/day i.p., read-out: percentage of HSV-1-infected mice alive at day 21 postinfection) and 100% in [17] (100 mg/kg/day i.p., read-out: percentage of HSV-1-infected mice without symptoms at day 21 postinfection). Moreover, the responders at 150 mg/kg in series [17] (150 mg/kg/day i.p., read-out: percentage of HSV-1-infected mice alive at day 21 postinfection) amounted to 100%; in series [17] (150 mg/kg/day i.p., read-out: percentage of HSV-1-infected mice without symptoms at day 21 postinfection), 100%. Besides, the responders at 250 mg/kg was 100% in [17] (250 mg/kg/day i.p., read-out: percentage of HSV-1-infected mice alive at day 21 postinfection) and 100% in series [17] (250 mg/kg/day i.p., read-out: percentage of HSV-1-infected mice without symptoms at day 21 postinfection). For the same compound, in [18], the “ADA substrate / inhibitor property in words” value is “neither a good substrate nor an inhibitor”.

These data come from patent US6825348B2, “Antiviral compounds” (Academia Sinica, priority 2002, dated 2004).
